Measurements published in publication PMC8532962 (Antibiotics, 2021).
Values after ≈ are worked out from the molar mass of the structure shown. Peptide text beside a SMILES is read from it.

Columns and labels:
[1] = tested on: Saccharomyces cerevisiae S288C; experiment: microbe, parasite or virus in culture; settings: 24 h, read-out: MIC Sc
[2] = tested on: Schizosaccharomyces pombe 972h-; experiment: microbe, parasite or virus in culture; settings: read-out: MIC Sp
[3] = tested on: Aspergillus nidulans FGSC A4; experiment: microbe, parasite or virus in culture; settings: FGSCA4, 24 h, read-out: MIC An
[4] = tested on: Candida albicans SC5314; experiment: microbe, parasite or virus in culture; settings: SC5314, 24 h, read-out: MIC Ca
[5] = tested on: Histoplasma capsulatum G217B; experiment: microbe, parasite or virus in culture; settings: 96 h, read-out: MIC Hc
[6] = tested on: tested bacteria; format: cell-based
[7] = tested on: Saccharomyces cerevisiae S288C; settings: 24 h
[8] = tested on: Schizosaccharomyces pombe 972h-
[9] = tested on: Aspergillus nidulans FGSC A4; settings: 24 h
[10] = tested on: Candida albicans SC5314; settings: SC5314, 24 h
[11] = tested on: Histoplasma capsulatum G217B; settings: 96 h
[12] = tested on: S. aureus; experiment: Antibacterial MIC, microbroth dilution; format: cell-based; settings: Staphylococcus aureus Newman; CLSI microbroth dilution, cation-adjusted Mueller-Hinton broth, 37 °C, OD600 every 15 min for 20 h, biological triplicate
Experimental: (§1) The antibacterial activity of the natural peptides and analogs was determined using the standard microbroth dilution method for determining minimal inhibitory concentration (MIC). […] The analog EMP-ER-D2K2 is the only analog that has some, but low, activity against B. subtilis with an MIC of 200 μg/mL.
(§2) Escherichia coli ATCC 25922 was obtained from ATCC and Pseudomonas aeruginosa ATCC 27853 was obtained from Carolina Biologicals. Staphylococcus aureus Newman was the S. aureus strain and the B. subtilis strain was JH642 (trpC2, pheA1).
(§3) Bacteria were grown on LB-agar plates (Fisher, Waltham, MA, USA) overnight at 37 °C, then stored at 4 °C until use. Four colonies were inoculated from the plate into 5 mL cation-adjusted Mueller-Hinton medium (Sigma) and grown to approximately OD600 = 1–2 at 37 °C in a shaking incubator at 250 rpm in preparation for antimicrobial activity testing. MICs were determined in cation-adjusted Mueller-Hinton broth using the microbroth dilution method from the Clinical and Laboratory Standards Institute. Growth was monitored by determining the optical density at 600 nm using a BioTek Synergy HTX multi-mode 96-well plate reader set to incubate at 37 °C and record every 15 min for 20 h. Each assay was performed in biological triplicate.

[13] = tested on: B. subtilis; experiment: Antibacterial MIC, microbroth dilution; format: cell-based, Bacillus subtilis JH642; settings: B. subtilis JH642; CLSI microbroth dilution, cation-adjusted Mueller-Hinton broth, 37 °C, OD600 every 15 min for 20 h, biological triplicate
Experimental: as §1, §2, §3

[14] = tested on: P. aeruginosa; experiment: Antibacterial MIC, microbroth dilution; format: cell-based, Pseudomonas aeruginosa ATCC 27853; settings: P. aeruginosa ATCC 27853; CLSI microbroth dilution, cation-adjusted Mueller-Hinton broth, 37 °C, OD600 every 15 min for 20 h, biological triplicate
Experimental: as §1, §2, §3

[15] = tested on: E. coli; experiment: Antibacterial MIC, microbroth dilution; format: cell-based, Escherichia coli ATCC 25922; settings: E. coli ATCC 25922; CLSI microbroth dilution, cation-adjusted Mueller-Hinton broth, 37 °C, OD600 every 15 min for 20 h, biological triplicate
Experimental: as §1, §2, §3

[16] = tested on: human erythrocytes; experiment: Hemolytic activity; format: cell-based; settings: 1% human erythrocytes in PBS, 37 °C, 1 h, hemoglobin at 416 nm, 100% = 1% TritonX-100, biological triplicate
Experimental: Type O+ fresh human blood was purchased from Tennessee Blood Services Corp. (Memphis, TN, USA) in 10% citrate phosphate dextrose 10X phosphate saline solution (PBS) and EDTA (K2). Upon receiving the blood, it was washed using three volumes of 1X PBS + 5 mM glucose. The suspension was centrifuged at 1000× g for 10 min at 4 °C and the supernatant removed. The process was repeated two more times. The sedimented cells were resuspended in the same volume of 1X PBS + 5 mM glucose and stored at 4 °C until use.
[…] The cell suspensions were incubated at 37 °C for 1 h. The unlysed erythrocytes were removed by centrifugation (16,000× g) and the released hemoglobin was determined spectrophotometrically at 416 nm using a NanoDrop spectrophotometer (Thermo Fisher Scientific, Waltham, MA, USA). The control for no release of hemoglobin was a sample of 1% erythrocytes incubated in PBS without peptide. The control for 100% release of hemoglobin was a sample of 1% erythrocyte incubated in PBS with 1% TritonX-100. Each assay was performed in biological triplicate.

[17] = tested on: human erythrocytes; settings: cited from earlier work
Experimental: For EMP-ER, Konno reports 100% hemolysis for a concentration of 0.5 μg/mL and about 50% for 0.18 μg/mL [33].

Compound | MIC [1] | MIC [2] | MIC [3] | MIC [4] | MIC [5] | antibacterial activity [6] | MIC Sc [7] | MIC Sp [8] | MIC An [9] | MIC Ca [10] | MIC Hc [11] | MIC S. aureus [12] | MIC B. subtilis [13] | MIC P. aeruginosa [14] | MIC E. coli [15] | hemolysis [16] | hemolysis (release) ([17]; at concentrations of 0.5 μg/m) | hemolysis potency relative to mastoparan [17]
C[C@@H]1[C@H](O)[C@@H](C)/C=C/C=C/C=C/C=C/C=C/C=C/C=C/[C@H](O[C@@H]2O[C@H](C)[C@@H](O)[C@H](N)[C@@H]2O)C[C@@H]2O[C@](O)(C[C@@H](O)C[C@@H](O)[C@H](O)CC[C@@H](O)C[C@@H](O)CC(=O)O[C@H]1C)C[C@H](O)[C@H]2C(=O)O [Amphotericin B] | 1 µg/mL (≈ 1.08 µM) | 0.25 µg/mL (≈ 0.271 µM) | > 16 µg/mL | 0.5 µg/mL (≈ 0.541 µM) | 0.5 µg/mL (≈ 0.541 µM) | – | – | – | – | – | – | – | – | – | – | – | – | –
CC[C@H](C)[C@H](N)C(=O)N[C@@H](CC(N)=O)C(=O)N[C@@H](CCCCN)C(=O)N[C@@H](CC(C)C)C(=O)N[C@H](C(=O)N[C@H](C(=O)N[C@@H](CCCCN)C(=O)N[C@H](C(=O)NCC(=O)N[C@@H](CCCCN)C(=O)N[C@H](C(=O)N[C@H](C(=O)N[C@@H](CO)C(=O)N[C@@H](CC(C)C)C(N)=O)C(C)C)[C@@H](C)CC)C(C)C)[C@@H](C)CC)C(C)C [EMP-AF-KV] (H-INKLVIKVGKIVSL-NH2) | – | – | – | – | – | no antibacterial activity | >256 µg/mL | >256 µg/mL | >256 µg/mL | >256 µg/mL | >256 µg/mL | – | – | – | – | – | – | –
CC[C@H](C)[C@H](N)C(=O)N[C@@H](CC(N)=O)C(=O)N[C@@H](CC(C)C)C(=O)N[C@@H](CC(C)C)C(=O)N[C@@H](CCCCN)C(=O)N[C@H](C(=O)N[C@@H](C)C(=O)N[C@@H](CCCCN)C(=O)NCC(=O)N[C@H](C(=O)N[C@H](C(=O)N[C@@H](CCCCN)C(=O)N[C@@H](CO)C(=O)N[C@@H](CC(C)C)C(N)=O)[C@@H](C)CC)[C@@H](C)CC)[C@@H](C)CC [EMP-AF-OR] (H-INLLKIAKGIIKSL-NH2) | – | – | – | – | – | – | >256 µg/mL | >256 µg/mL | >256 µg/mL | >256 µg/mL | 128 µg/mL (≈ 84 µM) | 25 µg/mL | 10 µg/mL | 200 µg/mL | 25 µg/mL | 100% | 75% | one-third
